Results on one compound are retold here after article PMC6353801, “Enhanced Anti-diabetic Effect of Berberine Combined With Timosaponin B2 in Goto-Kakizaki Rats, Associated With Increased Variety and Exposure of Effective Substances Through Intestinal Absorption” (Frontiers in Pharmacology, 2019).

A short description of this data set: Transport in Caco-2 cells. The data set is classed as in vitro ADME, human. To be noted: human. The protocol: The culture medium was changed every other day for the first 7 days and then daily for the next 14 days. […] Prior to the transport experiments, the cell monolayers were washed three times with HBSS at 37°C. […] At the same time, the corresponding opposite side was filled with medium as the receiving chamber. After incubation for 30, 60, 90, and 120 min, 250-μl aliquots of the medium was taken from the receiving chamber at each time point, and prepared for analysis by HPLC–MS/MS. […] where (ΔQ/Δt) is the linear slope of the drug concentration in the receptor chamber over time, A represents the surface area of the membrane (1.12 cm^2), and C0 is the initial concentration of drug in the donor chamber. The efflux ratio (ERpermeability) for BL to AP and AP to BL transport was defined by the following equation: […] where Papp (BL–AP) and Papp (AP–BL) are the apparent permeability of drugs from the basolateral (BL) to apical (AP) and AP to BL sides of the monolayer, respectively.
For orientation: Caco-2 monolayers are a common model of the intestinal barrier.

[1] abbreviates: Caco-2, BBR 10 μM in presence of TB-2 (5 μM), n = 3.

For orientation: Papp A→B means the apparent permeability from the apical to the basolateral side of a cell layer. A word on the Papp B→A: it is the apparent permeability from the basolateral to the apical side of a cell layer.

As for `COc1ccc2cc3[n+](cc2c1OC)CCc1cc2c(cc1-3)OCO2` [BBR, berberine], the efflux ratio at 10 μM (Caco-2, Caco-2, BBR 10 μM in presence of TB-2 (5 μM), read-out: ERpermeability (efflux ratio)) came to 31.1. Moreover, under setting [1], the Papp A→B at 10 μM was determined as 0.048 ± 0.014 ×10⁻⁶ cm/s and the Papp B→A at 10 μM was found to be 1.5 ± 0.499 ×10⁻⁶ cm/s.
